In patent US12404285B2, “KRAS G12D proteolysis targeting chimeras” (PAQ Therapeutics Inc., priority 2022, dated 2025):

Target: T1, KRAS (G12D)-HiBit in AsPc-1-KRAS (G12D)-HiBit-KI cell (Homo sapiens, UniProt P01116, G12D)
T1 construct: host or cells: AsPc-1-KRAS (G12D)-HiBit-KI cells (knock-in line)
Assay: G12D HiBit assay
Format: cell-based
Conditions: 24 hours compound treatment, absolute DC50, read-out: Average PHA DC50
In short: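 Degradation of endogenous HiBiT-tagged KRAS G12D in AsPc-1 knock-in cells read after 24 h compound exposure (0.015-300 nM, 3-fold steps) by Nano-Glo HiBiT lytic luminescence. Signal normalised to DMSO-only cells; absolute DC50 derived by curve fitting.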

T1 sequence (P01116 1-188 isoform P01116-2 G12D): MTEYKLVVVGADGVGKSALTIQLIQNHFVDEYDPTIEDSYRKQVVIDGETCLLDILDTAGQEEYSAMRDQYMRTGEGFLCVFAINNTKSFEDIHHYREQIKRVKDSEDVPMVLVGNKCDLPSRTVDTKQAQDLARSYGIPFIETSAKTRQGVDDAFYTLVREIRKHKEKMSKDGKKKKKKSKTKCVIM

Compound | DC50 [nM]
C#Cc1c(F)ccc2cccc(-c3ncc4c(N5CC6CCC(C5)N6)nc(OC[C@@]56CCCN5[C@H](COC(=O)N5CCC(OCCCCCc7ccc8c(c7)n(C)c(=O)n8C7CCC(=O)NC7=O)CC5)CC6)nc4c3F)c12 (stereo partly drawn) [Compound 120, [(3S,8S)-8-[[4-(3,8-Diazabicyclo[3.2.1]octan-3-yl)-7-(8-ethynyl-7-fluoro-1-naphthyl)-8-fluoro-pyrido[4,3-d]pyrimidin-2-yl]oxymethyl]-1,2,3,5,6,7-hexahydropyrrolizin-3-yl]methyl 4-[5-[1-(2,6-dioxo-3-piperidyl)-3-methyl-2-oxo-benzimidazol-5-yl]pentoxy]piperidine-1-carboxylate] | < 100
C#Cc1c(F)ccc2cccc(-c3ncc4c(N5CC6CCC(C5)N6)nc(OC[C@@]56CCCN5[C@H](COC(=O)N5CCC(OCCCCCc7cccc8c7n(C)c(=O)n8C7CCC(=O)NC7=O)CC5)CC6)nc4c3F)c12 (stereo partly drawn) [Compound 122, [(3S,8S)-8-[[4-(3,8-diazabicyclo[3.2.1]octan-3-yl)-7-(8-ethynyl-7-fluoro-1-naphthyl)-8-fluoro-pyrido[4,3-d]pyrimidin-2-yl]oxymethyl]-1,2,3,5,6,7-hexahydropyrrolizin-3-yl]methyl4-[5-[1-(2,6-dioxo-3-piperidyl)-3-methyl-2-oxo-benzimidazol-4-yl]pentoxy]piperidine-1-carboxylate] | < 100
C#Cc1c(F)ccc2cccc(-c3ncc4c(N5CC6CCC(C5)N6)nc(OC[C@@]56CCCN5[C@H](COC(=O)NCCOCCN5CCN(c7cccc8c7n(C)c(=O)n8C7CCC(=O)NC7=O)CC5)CC6)nc4c3F)c12 (stereo partly drawn) [Compound 123, [(3S,8S)-8-[[4-(3,8-diazabicyclo[3.2.1]octan-3-yl)-7-(8-ethynyl-7-fluoro-1-naphthyl)-8-fluoro-pyrido[4,3-d]pyrimidin-2-yl]oxymethyl]-1,2,3,5,6,7-hexahydropyrrolizin-3-yl]methyl N-[2-[2-[4-[1-(2,6-dioxo-3-piperidyl)-3-methyl-2-oxo-benzimidazol-4-yl]piperazin-1-yl]ethoxy]ethyl]carbamate] | ≥ 300
C#Cc1c(F)ccc2cccc(-c3ncc4c(N5CC6CCC(C5)N6)nc(OC[C@@]56CCCN5[C@H](COC(=O)NC[C@@H]5CN(CCCc7cccc8c7n(C)c(=O)n8C7CCC(=O)NC7=O)CCO5)CC6)nc4c3F)c12 (stereo partly drawn) [Compound 126, [(3S,8S)-8-[[4-(3,8-Diazabicyclo[3.2.1]octan-3-yl)-7-(8-ethynyl-7-fluoro-1-naphthyl)-8-fluoro-pyrido[4,3-d]pyrimidin-2-yl]oxymethyl]-1,2,3,5,6,7-hexahydropyrrolizin-3-yl]methyl N-[[(2 R)-4-[3-[1-(2,6-dioxo-3-piperidyl)-3-methyl-2-oxo-benzimidazol-4-yl]propyl]morpholin-2-yl]methyl]carbamate] | ≥ 300
C#Cc1c(F)ccc2cccc(-c3ncc4c(N5CC6CCC(C5)N6)nc(OC[C@@]56CCCN5[C@H](COC(=O)N5CCC(OC7CCN(Cc8cccc9c8n(C)c(=O)n9C8CCC(=O)NC8=O)CC7)CC5)CC6)nc4c3F)c12 (stereo partly drawn) [Compound 130, [(3S,8S)-8-[[4-(3,8-Diazabicyclo[3.2.1]octan-3-yl)-7-(8-ethynyl-7-fluoro-1-naphthyl)-8-fluoro-pyrido[4,3-d]pyrimidin-2-yl]oxymethyl]-1,2,3,5,6,7-hexahydropyrrolizin-3-yl]methyl4-[[1-[[1-(2,6-dioxo-3-piperidyl)-3-methyl-2-oxo-benzimidazol-4-yl]methyl]-4-piperidyl]oxy]piperidine-1-carboxylate] | < 100
C#Cc1c(F)ccc2cccc(-c3ncc4c(N5C[C@H]6CC[C@@H](C5)N6)nc(OC[C@@]56CCCN5[C@H](COC(=O)N5CCC(CC7CCN(Cc8cccc9c8n(C)c(=O)n9C8CCC(=O)NC8=O)CC7)CC5)CC6)nc4c3F)c12 (stereo partly drawn) [Compound 132, ((3S,7aS)-7a-(((4-((1R,5S)-3,8-Diazabicyclo[3.2.1]octan-3-yl)-7-(8-ethynyl-7-fluoronaphthalen-1-yl)-8-fluoropyrido[4,3-d]pyrimidin-2-yl)oxy)methyl)hexahydro-1H-pyrrolizin-3-yl)methyl4-((1-((1-(2,6-dioxopiperidin-3-yl)-3-methyl-2-oxo-2,3-dihydro-1H-benzo[d]imidazol-4-yl)methyl)piperidin-4-yl)methyl)piperidine-1-carboxylate] | < 100

Other lines, results leading:

DC50 [nM] | Compound
≥ 300 | C#Cc1c(F)ccc2cccc(-c3ncc4c(N5CC6CCC(C5)N6)nc(OC[C@@]56CCCN5[C@H](COC(=O)N5CC7(CCN(c8cccc9c8n(C)c(=O)n9C8CCC(=O)NC8=O)CC7)C5)CC6)nc4c3F)c12 (stereo partly drawn) [Compound 121, [(3S,8S)-8-[[4-(3,8-Diazabicyclo[3.2.1]octan-3-yl)-7-(8-ethynyl-7-fluoro-1-naphthyl)-8-fluoro-pyrido[4,3-d]pyrimidin-2-yl]oxymethyl]-1,2,3,5,6,7-hexahydropyrrolizin-3-yl]methyl 7-[1-(2,6-dioxo-3-piperidyl)-3-methyl-2-oxo-benzimidazol-4-yl]-2,7-diazaspiro[3.5]nonane-2-carboxylate]
< 100 | C#Cc1c(F)ccc2cccc(-c3ncc4c(N5CC6CCC(C5)N6)nc(OC[C@@]56CCCN5[C@H](COC(=O)N5CCC7(CC5)CC(CCc5cccc8c5n(C)c(=O)n8C5CCC(=O)NC5=O)C7)CC6)nc4c3F)c12 (stereo partly drawn) [Compound 124, [(3S,8S)-8-[[4-(3,8-Diazabicyclo[3.2.1]octan-3-yl)-7-(8-ethynyl-7-fluoro-1-naphthyl)-8-fluoro-pyrido[4,3-d]pyrimidin-2-yl]oxymethyl]-1,2,3,5,6,7-hexahydropyrrolizin-3-yl]methyl 2-[2-[1-(2,6-dioxo-3-piperidyl)-3-methyl-2-oxo-benzimidazol-4-yl]ethyl]-7-azaspiro[3.5]nonane-7-carboxylate]
≥ 300 | C#Cc1c(F)ccc2cccc(-c3ncc4c(N5CC6CCC(C5)N6)nc(OC[C@@]56CCCN5[C@H](COC(=O)NC[C@@H]5CN(CC#Cc7cccc8c7n(C)c(=O)n8C7CCC(=O)NC7=O)CCO5)CC6)nc4c3F)c12 (stereo partly drawn) [Compound 125, [(3S,8S)-8-[[4-(3,8-Diazabicyclo[3.2.1]octan-3-yl)-7-(8-ethynyl-7-fluoro-1-naphthyl)-8-fluoro-pyrido[4,3-d]pyrimidin-2-yl]oxymethyl]-1,2,3,5,6,7-hexahydropyrrolizin-3-yl]methylN-[[(2R)-4-[3-[1-(2,6-dioxo-3-piperidyl)-3-methyl-2-oxo-benzimidazol-4-yl]prop-2-ynyl]morpholin-2-yl]methyl]carbamate]
≥ 300 | C#Cc1c(F)ccc2cccc(-c3ncc4c(N5CC6CCC(C5)N6)nc(OC[C@@]56CCCN5[C@H](COC(=O)N5CCC(C7CCN(c8cccc9c8n(C)c(=O)n9C8CCC(=O)NC8=O)CC7)CC5)CC6)nc4c3F)c12 (stereo partly drawn) [Compound 127, [(3S,8S)-8-[[4-(3,8-Diazabicyclo[3.2.1]octan-3-yl)-7-(8-ethynyl-7-fluoro-1-naphthyl)-8-fluoro-pyrido[4,3-d]pyrimidin-2-yl]oxymethyl]-1,2,3,5,6,7-hexahydropyrrolizin-3-yl]methyl 4-[1-[1-(2,6-dioxo-3-piperidyl)-3-methyl-2-oxo-benzimidazol-4-yl]-4-piperidyl]piperidine-1-carboxylate]
< 100 | C#Cc1c(F)ccc2cccc(-c3ncc4c(N5CC6CCC(C5)N6)nc(OC[C@@]56CCCN5[C@H](COC(=O)N5CCC(COC7CCN(Cc8cccc9c8n(C)c(=O)n9C8CCC(=O)NC8=O)CC7)CC5)CC6)nc4c3F)c12 (stereo partly drawn) [Compound 128, [(3S,8S)-8-[[4-(3,8-diazabicyclo[3.2.1]octan-3-yl)-7-(8-ethynyl-7-fluoro-1-naphthyl)-8-fluoro-pyrido[4,3-d]pyrimidin-2-yl]oxymethyl]-1,2,3,5,6,7-hexahydropyrrolizin-3-yl]methyl4-[[1-[[1-(2,6-dioxo-3-piperidyl)-3-methyl-2-oxo-benzimidazol-4-yl]methyl]-4-piperidyl]oxymethyl]piperidine-1-carboxylate]
≥ 300 | C#Cc1c(F)ccc2cccc(-c3ncc4c(N5CC6CCC(C5)N6)nc(OC[C@@]56CCCN5[C@H](COC(=O)N5CCC7(CC5)CCN(c5cccc8c5n(C)c(=O)n8C5CCC(=O)NC5=O)CC7)CC6)nc4c3F)c12 (stereo partly drawn) [Compound 129, [(3S,8S)-8-[[4-(3,8-Diazabicyclo[3.2.1]octan-3-yl)-7-(8-ethynyl-7-fluoro-1-naphthyl)-8-fluoro-pyrido[4,3-d]pyrimidin-2-yl]oxymethyl]-1,2,3,5,6,7-hexahydropyrrolizin-3-yl]methyl9-[1-(2,6-dioxo-3-piperidyl)-3-methyl-2-oxo-benzimidazol-4-yl]-3,9-diazaspiro[5.5]undecane-3-carboxylate]
≥ 300 | C#Cc1c(F)ccc2cccc(-c3ncc4c(N5CC6CCC(C5)N6)nc(OC[C@@]56CCCN5[C@H](COC(=O)N5CCC(N7CCN(c8cccc9c8n(C)c(=O)n9C8CCC(=O)NC8=O)CC7)CC5)CC6)nc4c3F)c12 (stereo partly drawn) [Compound 131, [(3S,8S)-8-[[4-(3,8-Diazabicyclo[3.2.1]octan-3-yl)-7-(8-ethynyl-7-fluoro-1-naphthyl)-8-fluoro-pyrido[4,3-d]pyrimidin-2-yl]oxymethyl]-1,2,3,5,6,7-hexahydropyrrolizin-3-yl]methyl4-[4-[1-(2,6-dioxo-3-piperidyl)-3-methyl-2-oxo-benzimidazol-4-yl]piperazin-1-yl]piperidine-1-carboxylate]
≥ 300 | C#Cc1c(F)ccc2cccc(-c3ncc4c(N5CC6CCC(C5)N6)nc(OC[C@@]56CCCN5[C@H](COC(=O)N5CCC(OCCc7ccc8c(c7)n(C)c(=O)n8C7CCC(=O)NC7=O)CC5)CC6)nc4c3F)c12 (stereo partly drawn) [Compound 133, [(3S,8S)-8-[[4-(3,8-Diazabicyclo[3.2.1]octan-3-yl)-7-(8-ethynyl-7-fluoro-1-naphthyl)-8-fluoro-pyrido[4,3-d]pyrimidin-2-yl]oxymethyl]-1,2,3,5,6,7-hexahydropyrrolizin-3-yl]methyl 4-[2-[1-(2,6-dioxo-3-piperidyl)-3-methyl-2-oxo-benzimidazol-5-yl]ethoxy]piperidine-1-carboxylate]
